ChEMBL document CHEMBL1126833, “3-Substituted, 3-(4-pyridinylmethyl)-1,3-dihydro-1-phenyl-2H-indol-2-ones as acetylcholine release enhancers: synthesis and SAR” (J Med Chem, 1993)

Assays:
Format in all cases: functional
Rattus norvegicus [1] = species on record: Rattus norvegicus; assay: Ability to enhance stimulated release of AcCh from striatum region of rat brain
Rattus norvegicus [2] = assay: Tested for rat passive avoidance hypoxia induced amnesia at 30.0 mg/kg administered subcutaneously (p<0.05); conditions: route subcutaneous
Rattus norvegicus [3] = species on record: Rattus norvegicus; assay: Tested for rat passive avoidance hypoxia induced amnesia (no hypoxia)
Rattus norvegicus [4] = assay: Tested for rat passive avoidance hypoxia induced amnesia at 1.0 mg/kg administered subcutaneously; conditions: route subcutaneous
Rattus norvegicus [5] = assay: Tested for rat passive avoidance hypoxia induced amnesia at 0.3 mg/kg administered subcutaneously.; conditions: route subcutaneous
Rattus norvegicus [6] = assay: Tested for rat passive avoidance hypoxia induced amnesia at 0.1 mg/kg administered subcutaneously; conditions: route subcutaneous
Rattus norvegicus [7] = assay: Tested for rat passive avoidance hypoxia induced amnesia at 3.0 mg/kg administered subcutaneously (p<0.025); conditions: route subcutaneous
Rattus norvegicus [8] = assay: Tested for rat passive avoidance hypoxia induced amnesia at 100 mg/kg administered subcutaneously; conditions: route subcutaneous
Rattus norvegicus [9] = assay: Tested for rat passive avoidance hypoxia induced amnesia at 10.0 mg/kg administered subcutaneously (p<0.025); conditions: route subcutaneous

Structure (SMILES) | Release (Rattus norvegicus [1]) [%] | further results
O=C1N(c2ccccc2)c2ccccc2C1(O)Cc1ccncc1 (centres undefined) | 8 | –
O=C1N(c2ccccc2)c2ccccc2C1(CCCO)Cc1ccncc1 (centres undefined) | 27 | –
Cl.N#CCCCCC1(Cc2ccncc2)C(=O)N(c2ccccc2)c2ccccc21 (centres undefined) | 133 | –
Cl.NC(=O)CCCC1(Cc2ccncc2)C(=O)N(c2ccccc2)c2ccccc21 (centres undefined) | 26 | –
COC(=O)CCC1(Cc2ccncc2)C(=O)N(c2ccccc2)c2ccccc21.Cl (centres undefined) | 51 | –
CCOC(=O)CCCCC1(Cc2ccncc2)C(=O)N(c2ccccc2)c2ccccc21.Cl (centres undefined) | 3 | –
Cl.O=C(O)CC1(Cc2ccncc2)C(=O)N(c2ccccc2)c2ccccc21 (centres undefined) | -2 | –
CCCS(=O)(=O)CCCCC1(Cc2ccncc2)C(=O)N(c2ccccc2)c2ccc(Cl)cc21.Cl (centres undefined) | 8 | –
CCCSCCCCC1(Cc2ccncc2)C(=O)N(c2ccccc2)c2ccccc21.Cl (centres undefined) | 24 | –
CC(=O)CCCC1(Cc2ccncc2)C(=O)N(c2ccccc2)c2ccccc21.Cl (centres undefined) | 18 | –
Cl.N#CCCCCCCC1(Cc2ccncc2)C(=O)N(c2ccccc2)c2ccccc21 (centres undefined) | 19 | –
Cl.N#CCCCC1(Cc2ccncc2)C(=O)N(c2ccccc2)c2ccccc21 (centres undefined) | 74 | –
CC(=O)OCCCCC1(Cc2ccncc2)C(=O)N(c2ccccc2)c2ccccc21.Cl (centres undefined) | 27 | –
Cl.O=C1N(c2ccccc2)c2ccccc2C1(CCO)Cc1ccncc1 (centres undefined) | 12 | –
Cl.O=C(CCC1(Cc2ccncc2)C(=O)N(c2ccccc2)c2ccccc21)c1ccc(F)cc1 (centres undefined) | 11 | –
Cl.N#CCCCCCC1(Cc2ccncc2)C(=O)N(c2ccccc2)c2ccccc21 (centres undefined) | 74 | –

Structure (SMILES) | Release (Rattus norvegicus [1]) [%] | further results
CN(C)CCC1(Cc2ccncc2)C(=O)N(c2ccccc2)c2ccccc21.Cl.Cl (centres undefined) | 3 | –
CCOC(=O)CCC1(Cc2ccncc2)C(=O)N(c2ccccc2)c2ccccc21.Cl (centres undefined) | 57 | –
Cl.O=C(CCCC1(Cc2ccncc2)C(=O)N(c2ccccc2)c2ccccc21)c1ccc(F)cc1 (centres undefined) | 29 | –
Cl.N#CCC1(Cc2ccncc2)C(=O)N(c2ccccc2)c2ccccc21 (centres undefined) | 11 | –
CCOC(=O)/C=C/CC1(Cc2ccncc2)C(=O)N(c2ccccc2)c2ccccc21.Cl (centres undefined) | 41 | –
Cl.O=C(O)CCCC1(Cc2ccncc2)C(=O)N(c2ccccc2)c2ccccc21 (centres undefined) | 0 | –
Cl.O=C1N(c2ccccc2)c2ccccc2C1(CCCCO)Cc1ccncc1 (centres undefined) | 29 | –
CCOCCCCC1(Cc2ccncc2)C(=O)N(c2ccccc2)c2ccccc21.Cl (centres undefined) | 17 | –
CCOC(=O)CC1(Cc2ccncc2)C(=O)N(c2ccccc2)c2ccccc21.Cl (centres undefined) | 21 | –
O=C1C(Cc2ccncc2)c2ccccc2N1c1ccccc1 (centres undefined) | 0 | –
CCCCCCC1(Cc2ccncc2)C(=O)N(c2ccccc2)c2ccccc21 (centres undefined) | 6 | –
CCOC(=O)CCCC1(Cc2ccncc2)C(=O)N(c2ccccc2)c2ccccc21.Cl (racemic) | 109 | –
CCOC(=O)CCCC1(Cc2ccncc2)C(=O)N(c2ccccc2)c2ccccc21.Cl (single isomer, unassigned; (-)) | 3 | –
CCOC(=O)CCCC1(Cc2ccncc2)C(=O)N(c2ccccc2)c2ccccc21.Cl (stereo in doubt; 8) | 99 | Median retension latency (Rattus norvegicus [2]): 201; Median retension latency (Rattus norvegicus [3]): 300; Median retension latency (Rattus norvegicus [4]): 89.5; Median retension latency (Rattus norvegicus [5]): 37.5; Median retension latency (Rattus norvegicus [6]): 79.5; Median retension latency (Rattus norvegicus [7]): 112; Median retension latency (Rattus norvegicus [8]): 34; Median retension latency (Rattus norvegicus [9]): 136
O=C1N(c2ccccc2)c2ccccc2C1(Cc1ccncc1)Cc1ccncc1 [LINOPIRDINE] | 100 | –
